For assay [1], the target named is T1, human NHE3 (Homo sapiens, UniProt P48764).
T1 sequence (P48764 26-834): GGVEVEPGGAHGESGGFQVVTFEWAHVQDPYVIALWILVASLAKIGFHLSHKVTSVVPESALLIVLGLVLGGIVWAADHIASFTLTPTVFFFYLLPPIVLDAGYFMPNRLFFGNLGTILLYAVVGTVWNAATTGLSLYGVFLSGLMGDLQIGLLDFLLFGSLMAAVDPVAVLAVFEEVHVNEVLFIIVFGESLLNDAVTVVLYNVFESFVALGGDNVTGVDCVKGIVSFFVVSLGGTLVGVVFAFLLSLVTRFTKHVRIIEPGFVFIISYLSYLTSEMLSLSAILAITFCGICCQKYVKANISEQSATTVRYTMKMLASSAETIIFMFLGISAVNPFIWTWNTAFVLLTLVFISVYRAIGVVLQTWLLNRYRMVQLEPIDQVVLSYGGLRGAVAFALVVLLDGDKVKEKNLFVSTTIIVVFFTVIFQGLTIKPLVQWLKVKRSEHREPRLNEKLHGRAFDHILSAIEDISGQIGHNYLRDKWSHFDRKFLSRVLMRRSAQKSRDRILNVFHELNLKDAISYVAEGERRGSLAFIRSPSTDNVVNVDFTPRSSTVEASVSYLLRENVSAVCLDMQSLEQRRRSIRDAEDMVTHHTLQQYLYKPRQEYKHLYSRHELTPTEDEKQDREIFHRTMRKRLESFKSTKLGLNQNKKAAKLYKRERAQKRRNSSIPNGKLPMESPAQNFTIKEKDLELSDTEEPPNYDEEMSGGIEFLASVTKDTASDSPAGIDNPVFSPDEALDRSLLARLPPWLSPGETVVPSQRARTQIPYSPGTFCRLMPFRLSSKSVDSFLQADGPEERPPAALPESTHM
Nature of the assay: Cell-based assay of NHE-3 activity (human NHE3 inhibition assay). Set-up: expressed in transfected cells; host or cells: Opossum kidney (OK) cells (ATCC), electroporated. Conditions: OK cells with human NHE-3 gene, BCECF pH recovery, 0-30 μM test compound; read-out: Human NHE3 pIC50 (converted). The method in brief:
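Opossum kidney cells electroporated with rat or human NHE-3, loaded with 5 μM BCECF-AM in NH4Cl-HEPES pH 7.4 for 30 min at RT, then acidified 10 min in Na+-free choline HEPES. Na+-dependent pH recovery rates from BCECF fluorescence, averaged over ≥2 replicates, gave pIC50.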

The target of assay [2] is T1, human NHE3. Nature of the assay: Cell-based assay of NHE-3 activity (persistent inhibition), human. Conditions: PS120 fibroblasts stably expressing human NHE3, 60 min incubation then washout; for IC50: read-out: pIC50 (human Persistence assay) (converted). The protocol: The ability of compounds to inhibit human and rat NHE-3-mediated Na^+-dependent H^+ antiport after application and washout was measured using a modification of the pH sensitive dye method described above. PS120 fibroblasts stably expressing human NHE3 were obtained from Mark Donowitz (Baltimore, Md.). Opossum kidney (OK) cells were obtained from the ATCC and propagated per their instructions. The rat NHE-3 gene was introduced into OK cells via electroporation, and cells were seeded into 96 well plates and grown overnight. Medium was aspirated from the wells, cells were washed once with NaCl-HEPES buffer (100 mM NaCl, 50 mM HEPES, 10 mM glucose, 5 mM KCl, 2 mM CaCl2, 1 mM MgCl2, pH 7.4), then overlayed with NaCl-HEPES buffer containing 0-30 μM test compound. After a 60 min incubation at room temperature, the test drug containing buffer was aspirated from the cells. Following aspiration, cells were washed once with NaCl-HEPES buffer without drug, then incubated for 30 min at 37° C. with NH4Cl-HEPES buffer (20 mM NH4Cl, 80 mM NaCl, 50 mM HEPES, 5 mM KCl, 2 mM CaCl2, 1 mM MgCl2, pH 7.4) containing 5 μM BCECF-AM. Cells were washed once with Ammonium free, Na^+-free HEPES (100 mM choline, 50 mM HEPES, 10 mM glucose, 5 mM KCl, 2 mM CaCl2, 1 mM MgCl2, pH 7.4) and incubated in the same buffer for 10 minutes at room temperature to lower intracellular pH. NHE-3-mediated recovery of neutral intracellular pH was initiated (10 min after compound washout) by addition of Na-HEPES buffer. […] Changes in intracellular pH were monitored using a FLIPR Tetra® (Molecular Devices, Sunnyvale, Calif.) by excitation at λex 439 to 505 nm, and measuring BCECF fluorescence at λem 538 nm. The initial rate of the fluorescence ratio change was used as a measure of NHE-mediated Na^+/H^+ activity, and reported as the change in fluorescence ratio per minute. Initial rates were plotted as the average 2 or more replicates, and pIC50 values were estimated using GraphPad Prism.

Structures are written as SMILES.

As for `CN(C)[C@H]1Cc2c(Cl)cc(Cl)cc2[C@@H]1Oc1ccc(S(=O)(=O)NCCOCCOCCNC(=O)CCC(C)(N)CCC(=O)NCCOCCOCCNS(=O)(=O)c2ccc(O[C@H]3c4cc(Cl)cc(Cl)c4C[C@@H]3N(C)C)cc2)cc1` [Example 11, 4-amino-N1,N7-bis(2-(2-(2-(4-((1S,2S)-4,6-dichloro-2-(dimethylamino)-2,3-dihydro-1H-inden-1-yloxy)phenylsulfonamido)ethoxy)ethoxy)ethyl)-4-methylheptanediamide], the IC50 in assay [1] was below 0.1 µM. In assay [2], the “% inhibition (human Persistence assay)” value is “B (40-70%)” and the IC50 is below 0.1 µM.

Turning to `CN(C)[C@H]1Cc2c(F)cc(Cl)cc2[C@@H]1Oc1ccc(S(=O)(=O)NCCOCCOCCNC(=O)NCCCCNC(=O)NCCOCCOCCNS(=O)(=O)c2ccc(O[C@H]3c4cc(Cl)cc(F)c4C[C@@H]3N(C)C)cc2)cc1` [Example 25], the IC50 in assay [1] was below 0.1 µM. In assay [2], the “% inhibition (human Persistence assay)” value is reported as “C (>70%)” and the IC50 is below 0.1 µM.

Take `N[C@@H]1CCCN([C@H]2Cc3c(Cl)cc(Cl)cc3[C@@H]2Oc2ccc(S(=O)(=O)NCCOCCOCCNC(=O)NCCCCNC(=O)NCCOCCOCCNS(=O)(=O)c3ccc(O[C@H]4c5cc(Cl)cc(Cl)c5C[C@@H]4N4CCC[C@@H](N)C4)cc3)cc2)C1` [Example 3, (S,S,R)—N,N′-(10,17-dioxo-3,6,21,24-tetraoxa-9,11,16,18-tetraazahexacosane-1,26-diyl)bis(4-((1S,2S)-2-((R)-3-aminopiperidin-1-yl)-4,6-dichloro-2,3-dihydro-1H-inden-1-yloxy)benzenesulfonamide)]: the IC50 in assay [1] was below 0.1 µM. In assay [2], the “% inhibition (human Persistence assay)” value is on record as “C (>70%)” and the IC50 is below 0.1 µM.

As for `CN(C)[C@H]1Cc2c(Cl)cc(Cl)cc2[C@@H]1Oc1ccc(S(=O)(=O)NCCOCCOCCNC(=O)C(C)(C)C(=O)NCCOCCOCCNS(=O)(=O)c2ccc(O[C@H]3c4cc(Cl)cc(Cl)c4C[C@@H]3N(C)C)cc2)cc1` [Example 36], the IC50 in assay [1] is below 0.1 µM. In assay [2], the “% inhibition (human Persistence assay)” value is listed as “C (>70%)” and the IC50 is 0.1 to 1 µM.

Consider `O=C(NCCCCNC(=O)NCCOCCOCCNS(=O)(=O)c1ccc(O[C@H]2c3cc(Cl)cc(Cl)c3C[C@@H]2N2CCCCC2)cc1)NCCOCCOCCNS(=O)(=O)c1ccc(O[C@H]2c3cc(Cl)cc(Cl)c3C[C@@H]2N2CCCCC2)cc1` [Example 15], for which, in assay [1], the IC50 was above 10 µM. Moreover, in assay [2], the “% inhibition (human Persistence assay)” value is reported as “C (>70%)” and the IC50 is above 1 µM.

On to `O=C(NCCCCNC(=O)NCCOCCOCCNS(=O)(=O)c1ccc(O[C@H]2c3cc(Cl)cc(Cl)c3C[C@@H]2N2CC[C@@H](O)C2)cc1)NCCOCCOCCNS(=O)(=O)c1ccc(O[C@H]2c3cc(Cl)cc(Cl)c3C[C@@H]2N2CC[C@@H](O)C2)cc1` [Example 30], for which the IC50 in assay [1] was below 0.1 µM. Further, in assay [2], the “% inhibition (human Persistence assay)” value is “C (>70%)” and the IC50 is below 0.1 µM.

Take `O=C(NCCCCNC(=O)NCCOCCOCCNC(=O)Nc1cccc(O[C@H]2c3ccccc3C[C@@H]2N2CCCCC2)c1)NCCOCCOCCNC(=O)Nc1cccc(O[C@H]2c3ccccc3C[C@@H]2N2CCCCC2)c1` [Example 13, 1-{2-[2-(2-{[(3-{[(1S,2S)-2-(piperidin-1-yl)-2,3-dihydro-1H-inden-1-yl]oxy}phenyl)carbamoyl]amino}ethoxy)ethoxy]ethyl}-3-{4-[({2-[2-(2-{[(3-{[(1S,2S)-2-(piperidin-1-yl)-2,3-dihydro-1H-inden-1-yl]oxy}phenyl)carbamoyl]amino}ethoxy)ethoxy]ethyl}carbamoyl)amino]butyl}urea]: the IC50 in assay [1] was 0.1 to 10 µM. Further, in assay [2], the “% inhibition (human Persistence assay)” value is recorded as “A (NHE3 <40%)” and the IC50 was above 1 µM.

In the case of `CN(C)[C@H]1Cc2c(Cl)cc(Cl)cc2[C@@H]1Oc1ccc(S(=O)(=O)NCCOCCOCCNC(=O)COCC(=O)NCCOCCOCCNS(=O)(=O)c2ccc(O[C@H]3c4cc(Cl)cc(Cl)c4C[C@@H]3N(C)C)cc2)cc1` [Example 9, 2,2′-oxybis(N-(2-(2-(2-(4-((1S,2S)-4,6-dichloro-2-(dimethylamino)-2,3-dihydro-1H-inden-1-yloxy)phenylsulfonamido)ethoxy)ethoxy)ethyl)acetamide)], in assay [1], the IC50 was below 0.1 µM. For the same molecule, in assay [2], the “% inhibition (human Persistence assay)” value is “C (>70%)” and the IC50 was 0.1 to 1 µM.

As to `CN(C)[C@H]1Cc2ccc(Cl)cc2[C@@H]1Oc1ccc(S(=O)(=O)NCCOCCOCCNC(=O)NCCCCNC(=O)NCCOCCOCCNS(=O)(=O)c2ccc(O[C@H]3c4cc(Cl)ccc4C[C@@H]3N(C)C)cc2)cc1` [Example 21], the IC50 in assay [1] and in assay [2] was below 0.1 µM each time. Moreover, the “% inhibition (human Persistence assay)” value in assay [2] is “C (>70%)”.

As to `CN(C)[C@H]1Cc2c(Cl)cc(Cl)cc2[C@@H]1Oc1ccc(S(=O)(=O)NCCOCCOCCNC(=O)NCCCCNC(=O)NCCOCCOCCNS(=O)(=O)c2ccc(O[C@H]3c4cc(Cl)cc(Cl)c4C[C@@H]3N(C)C)cc2)cc1` [Example 1, (S,S)—N,N′-(10,17-dioxo-3,6,21,24-tetraoxa-9,11,16,18-tetraazahexacosane-1,26-diyl)bis(4-((1S,2S)-4,6-dichloro-2-(dimethylamino)-2,3-dihydro-1H-inden-1-yloxy)benzenesulfonamide)], in assay [1], the IC50 was below 0.1 µM. Moreover, in assay [2], the “% inhibition (human Persistence assay)” value was “C (>70%)” and the IC50 is below 0.1 µM.

Consider `O=C(NCCCCNC(=O)NCCOCCOCCNS(=O)(=O)c1ccc(O[C@H]2c3cc(F)ccc3C[C@@H]2N2CCCCC2)cc1)NCCOCCOCCNS(=O)(=O)c1ccc(O[C@H]2c3cc(F)ccc3C[C@@H]2N2CCCCC2)cc1` [Example 23], for which the IC50 in assay [1] was below 0.1 µM. Also, in assay [2], the “% inhibition (human Persistence assay)” value is “C (>70%)” and the IC50 is 0.1 to 1 µM.

With `CN(C)[C@H]1Cc2ccc(F)cc2[C@@H]1Oc1ccc(S(=O)(=O)NCCOCCOCCNC(=O)NCCCCNC(=O)NCCOCCOCCNS(=O)(=O)c2ccc(O[C@H]3c4cc(F)ccc4C[C@@H]3N(C)C)cc2)cc1` [Example 22], the IC50 in assay [1] is below 0.1 µM. In assay [2], the “% inhibition (human Persistence assay)” value was “A (NHE3 <40%)” and the IC50 was above 1 µM.

`CN(C)[C@H]1Cc2c(Cl)cc(Cl)cc2[C@@H]1Oc1ccc(S(=O)(=O)NCCOCCOCCNC(=O)[C@H](O)[C@@H](O)C(=O)NCCOCCOCCNS(=O)(=O)c2ccc(O[C@H]3c4cc(Cl)cc(Cl)c4C[C@@H]3N(C)C)cc2)cc1` [Example 5, (2R,3R)—N1,N4-bis(2-(2-(2-(4-((1S,2S)-4,6-dichloro-2-(dimethylamino)-2,3-dihydro-1H-inden-1-yloxy)phenylsulfonamido)ethoxy)ethoxy)ethyl)-2,3-dihydroxysuccinamide]: the IC50 in assay [1] is below 0.1 µM. Further, in assay [2], the “% inhibition (human Persistence assay)” value is “C (>70%)” and the IC50 is 0.1 to 1 µM.

As for `O=C(NCCCCNC(=O)NCCOCCOCCOCCNS(=O)(=O)c1ccc(O[C@H]2c3ccccc3C[C@@H]2N2CCCCC2)cc1)NCCOCCOCCOCCNS(=O)(=O)c1ccc(O[C@H]2c3ccccc3C[C@@H]2N2CCCCC2)cc1` [Example 16], the IC50 in assay [1] was below 0.1 µM; in assay [2] it was above 1 µM. Also, in assay [2], the “% inhibition (human Persistence assay)” value is listed as “B (40-70%)”.

The record behind these values is patent US10376481B2, “Compounds and methods for inhibiting NHE-mediated antiport in the treatment of disorders associated with fluid retention or salt overload and gastrointestinal tract disorders” (ARDELYX, INC, priority 2012, dated 2019).
